Results on two compounds are retold here after patent US20250163089A1, “Branched Molecules for Redox Flow Batteries” (XL Batteries, Inc., priority 2023, published 2025).

The conditions of data set [1]: solvent not stated.
Data set [2] is described as follows: Viscosity of the solution. The note with it: at a concentration of […]. The format is physicochemical.

For `O=C(O)CCC[c-]1cccc1.[Fe+2].c1cc[cH-]c1` [4-ferrocene butyric acid], the “maximum concentration dissolved, after which solid precipitated from the solution” value in data set [1] stood at 0.251 M. What is called viscosity is the resistance of a fluid to flow. Higher therefore signals sluggish flow. In turn, N-(4-ferrocenylbutanoyl)-L-glutamate came in with a viscosity in data set [2] of 3.7 cP.
